Assay results reported in patent US7507727B2, “Substituted quinobenzoxazine analogs and methods of using thereof” (Cylene Pharmaceuticals, Inc., priority 2003, dated 2009).

Molecular target: c-Myc template DNA (c-myc quadruplex)
Assay: Quadruplex binding / stop assay (Taq polymerase arrest, capillary electrophoresis)
Conditions: read-out: S DATA; Table 1D, stop assay data

Structure (SMILES) | IC50
CC(CNC(=O)c1cn2c3c(c(N4CCC(N)C4)c(F)cc3c1=O)Oc1cc3ccccc3cc1-2)c1ccccc1 (stereo not drawn) [compound 1695] | > 15 µM
NC1CCN(c2c(F)cc3c(=O)c(C(=O)NCCc4c[nH]c5ccccc45)cn4c3c2Oc2cc3ccccc3cc2-4)C1 (stereo not drawn) [compound 1696] | > 15 µM
CCOCCCNC(=O)c1cn2c3c(c(N4CCC(N)C4)c(F)cc3c1=O)Oc1cc3ccccc3cc1-2 (stereo not drawn) [compound 1697] | > 15 µM
COc1cccc(CCNC(=O)c2cn3c4c(c(N5CCC(N)C5)c(F)cc4c2=O)Oc2cc4ccccc4cc2-3)c1 (stereo not drawn) [compound 1698] | > 15 µM
COc1ccc2[nH]cc(CCNC(=O)c3cn4c5c(c(N6CCC(N)C6)c(F)cc5c3=O)Oc3cc5ccccc5cc3-4)c2c1 (stereo not drawn) [compound 1699] | 1.75 µM
NC1CCN(c2c(F)cc3c(=O)c(C(=O)NCC4CC4)cn4c3c2Oc2cc3ccccc3cc2-4)C1 (stereo not drawn) [compound 1700] | > 15 µM
NC1CCN(c2c(F)cc3c(=O)c(C(=O)NCCc4cccs4)cn4c3c2Oc2cc3ccccc3cc2-4)C1 (stereo not drawn) [compound 1701] | > 15 µM
COc1cccc(CCNC(=O)c2cn3c4c(c(N5CCC(N)C5)c(F)cc4c2=O)Oc2cc4ccccc4cc2-3)c1OC (stereo not drawn) [compound 1702] | > 15 µM
NC1CCN(c2c(F)cc3c(=O)c(C(=O)NCC(O)c4ccccc4)cn4c3c2Oc2cc3ccccc3cc2-4)C1 (stereo not drawn) [compound 1703] | > 15 µM
NC1CCN(c2c(F)cc3c(=O)c(C(=O)NCC(O)CO)cn4c3c2Oc2cc3ccccc3cc2-4)C1 (stereo not drawn) [compound 1704] | 1.75 µM
COc1ccc(CCNC(=O)c2cn3c4c(c(N5CCC(N)C5)c(F)cc4c2=O)Oc2cc4ccccc4cc2-3)cc1OC (stereo not drawn) [compound 1705] | > 15 µM
NC1CCN(c2c(F)cc3c(=O)c(C(=O)NCCc4ccc(O)c(O)c4)cn4c3c2Oc2cc3ccccc3cc2-4)C1 (stereo not drawn) [compound 1706] | > 15 µM
NC1CCN(c2c(F)cc3c(=O)c(C(=O)NCCc4ccc(O)cc4)cn4c3c2Oc2cc3ccccc3cc2-4)C1 (stereo not drawn) [compound 1707] | > 15 µM
C[C@@H](O)CNC(=O)c1cn2c3c(c(N4CCC(N)C4)c(F)cc3c1=O)Oc1cc3ccccc3cc1-2 (stereo partly drawn) [compound 1708] | > 15 µM
C[C@H](O)CNC(=O)c1cn2c3c(c(N4CCC(N)C4)c(F)cc3c1=O)Oc1cc3ccccc3cc1-2 (stereo partly drawn) [compound 1709] | > 15 µM
CC(C)OCCCNC(=O)c1cn2c3c(c(N4CCC(N)C4)c(F)cc3c1=O)Oc1cc3ccccc3cc1-2 (stereo not drawn) [compound 1710] | > 15 µM
COc1ccccc1CCNC(=O)c1cn2c3c(c(N4CCC(N)C4)c(F)cc3c1=O)Oc1cc3ccccc3cc1-2 (stereo not drawn) [compound 1711] | > 15 µM
CC1CCCN(CCCNC(=O)c2cn3c4c(c(N5CCC(N)C5)c(F)cc4c2=O)Oc2cc4ccccc4cc2-3)C1 (stereo not drawn) [compound 1712] | > 15 µM
CC1CCCC(C)N1CCCNC(=O)c1cn2c3c(c(N4CCC(N)C4)c(F)cc3c1=O)Oc1cc3ccccc3cc1-2 (stereo not drawn) [compound 1713] | 0.75 µM
CN(C)c1cccc(CNC(=O)c2cn3c4c(c(N5CCC(N)C5)c(F)cc4c2=O)Oc2cc4ccccc4cc2-3)c1 (stereo not drawn) [compound 1714] | > 15 µM
CN(C)c1ccccc1CNC(=O)c1cn2c3c(c(N4CCC(N)C4)c(F)cc3c1=O)Oc1cc3ccccc3cc1-2 (stereo not drawn) [compound 1715] | > 15 µM
NCCCNC(=O)c1cn2c3c(c(N4CCC(N)C4)c(F)cc3c1=O)Oc1cc3ccccc3cc1-2 (stereo not drawn) [compound 1716] | 0.75 µM

Structure (SMILES) | IC50
CN1CCC(NC(=O)c2cn3c4c(c(N5CCC(N)C5)c(F)cc4c2=O)Oc2cc4ccccc4cc2-3)CC1 (stereo not drawn) [compound 1717] | 0.75 µM
CCCCN1CCC(CNC(=O)c2cn3c4c(c(N5CCC(N)C5)c(F)cc4c2=O)Oc2cc4ccccc4cc2-3)CC1 (stereo not drawn) [compound 1718] | 1.75 µM
CCN(CC)CCCC(C)NC(=O)c1cn2c3c(c(N4CCC(c5cnccn5)C4)c(F)cc3c1=O)Oc1cc3ccccc3cc1-2 (stereo not drawn) [compound 1719] | 3 µM
CCN(CC)CCCC(C)NC(=O)c1cn2c3c(c(N4CCC(c5cnccn5)C4)ccc3c1=O)Oc1cc3ccccc3cc1-2 (stereo not drawn) [compound 1720] | 1 µM
CCN(CC)CCCC(C)NC(=O)c1cn2c3c(c(N4CCC(c5cnccn5)C4)ccc3c1=O)Oc1ccccc1-2 (stereo not drawn) [compound 1721] | 3 µM
O=C(NCCN1CCCC1)c1cn2c3c(c(N4CCC(c5cnccn5)C4)ccc3c1=O)Oc1ccccc1-2 (stereo not drawn) [compound 1722] | 3 µM
O=C(NCCN1CCCC1)c1cn2c3c(c(N4CCC(c5cnccn5)C4)ccc3c1=O)Oc1cc3ccccc3cc1-2 (stereo not drawn) [compound 1723] | 1.5 µM
O=C(NCCN1CCCC1)c1cn2c3c(c(N4CCC(c5cnccn5)C4)c(F)cc3c1=O)Oc1ccccc1-2 (stereo not drawn) [compound 1724] | 11 µM
CCN(CC)CCCC(C)NC(=O)c1cn2c3c(c(N4CCC(c5cnccn5)C4)c(F)cc3c1=O)Oc1ccccc1-2 (stereo not drawn) [compound 1725] | 3 µM
O=C(NCCN1CCCC1)c1cn2c3c(c(N4CC5CCCNC5C4)c(F)cc3c1=O)Oc1ccccc1-2 (stereo not drawn) [compound 1728] | > 15 µM
CCN(CC)CCCC(C)NC(=O)c1cn2c3c(c(N4CC5CCCNC5C4)c(F)cc3c1=O)Oc1ccccc1-2 (stereo not drawn) [compound 1729] | > 15 µM
CCN(CC)CCCC(C)NC(=O)c1cn2c3c(c(N4CC5CCCNC5C4)ccc3c1=O)Oc1ccccc1-2 (stereo not drawn) [compound 1730] | > 15 µM
O=C(NCCN1CCCC1)c1cn2c3c(c(N4CC5CCCNC5C4)ccc3c1=O)Oc1ccccc1-2 (stereo not drawn) [compound 1731] | > 15 µM
CCN(CC)CCCC(C)NC(=O)c1cn2c3c(c(N4CC5CCCNC5C4)ccc3c1=O)Oc1cc3ccccc3cc1-2 (stereo not drawn) [compound 1733] | > 15 µM
O=C(NCCN1CCCC1)c1cn2c3c(c(NCC4CCCO4)c(F)cc3c1=O)Oc1cc3ccccc3cc1-2 (stereo not drawn) [compound 1734] | 3 µM
CN1CCCC1CCNC(=O)c1cn2c3c(c(NC[C@H]4CCCO4)c(F)cc3c1=O)Oc1cc3ccccc3cc1-2 (stereo partly drawn) [compound 1735] | 2.5 µM
CN1CCCC1CCNC(=O)c1cn2c3c(c(NC[C@H]4CCCO4)c(F)cc3c1=O)Oc1cc3ccccc3cc1-2 (stereo partly drawn) [compound 1736] | 3 µM
CN1CCCC1CCNC(=O)c1cn2c3c(c(NC[C@@H]4CCCO4)c(F)cc3c1=O)Oc1cc3ccccc3cc1-2 (stereo partly drawn) [compound 1737] | 4 µM
CN1CCCC1CCNC(=O)c1cn2c3c(c(F)c(F)cc3c1=O)Oc1cc3ccccc3cc1-2 (stereo not drawn) [compound 1738] | 2.25 µM
CN1CCCC1CCNC(=O)c1cn2c3c(c(F)c(F)cc3c1=O)Oc1cc3ccccc3cc1-2 (stereo not drawn) [compound 1739] | 3.3 µM
O=C(O)c1cn2c3c(c(NCC4CCCO4)c(F)cc3c1=O)Oc1cc3ccccc3cc1-2 (stereo not drawn) [compound 1740] | 8.5 µM
CN1CCC[C@@H]1CCNC(=O)c1cn2c3c(c(N4CCC(c5cnccn5)C4)c(F)cc3c1=O)Oc1cc3ccccc3cc1-2 (stereo partly drawn) [compound 1741] | 0.74 µM

Structure (SMILES) | IC50
CC(C)CC(CO)Nc1c(F)cc2c(=O)c(C(=O)NCCC3CCCN3C)cn3c2c1Oc1cc2ccccc2cc1-3 (stereo not drawn) [compound 1743] | > 15 µM
CN1CCCC1CCNC(=O)c1cn2c3c(c(NCC(C)(C)CO)c(F)cc3c1=O)Oc1cc3ccccc3cc1-2 (stereo not drawn) [compound 1744] | > 15 µM
CN1CCCC1CCNC(=O)c1cn2c3c(c(NCC4OCCO4)c(F)cc3c1=O)Oc1cc3ccccc3cc1-2 (stereo not drawn) [compound 1745] | > 15 µM
CC(C)OCCNc1c(F)cc2c(=O)c(C(=O)NCCC3CCCN3C)cn3c2c1Oc1cc2ccccc2cc1-3 (stereo not drawn) [compound 1746] | > 15 µM
CC(C)C(CO)Nc1c(F)cc2c(=O)c(C(=O)NCCC3CCCN3C)cn3c2c1Oc1cc2ccccc2cc1-3 (stereo not drawn) [compound 1747] | > 15 µM
CN1CCCC1CCNC(=O)c1cn2c3c(c(NC(CO)CC4CCCCC4)c(F)cc3c1=O)Oc1cc3ccccc3cc1-2 (stereo not drawn) [compound 1748] | > 15 µM
CN1CCCC1CCNC(=O)c1cn2c3c(c(NC4CCS(=O)(=O)C4)c(F)cc3c1=O)Oc1cc3ccccc3cc1-2 (stereo not drawn) [compound 1749] | 1.95 µM
CC(CNc1c(F)cc2c(=O)c(C(=O)NCCC3CCCN3C)cn3c2c1Oc1cc2ccccc2cc1-3)Oc1ccccn1 (stereo not drawn) [compound 1750] | 9.7 µM
CN1CCCC1CCNC(=O)c1cn2c3c(c(NC4CCOC(C)(C)C4)c(F)cc3c1=O)Oc1cc3ccccc3cc1-2 (stereo not drawn) [compound 1751] | > 15 µM
CN1CCCC1CCNC(=O)c1cn2c3c(c(NCc4ccoc4)c(F)cc3c1=O)Oc1cc3ccccc3cc1-2 (stereo not drawn) [compound 1752] | > 15 µM
Cc1cc(CNc2c(F)cc3c(=O)c(C(=O)NCCC4CCCN4C)cn4c3c2Oc2cc3ccccc3cc2-4)no1 (stereo not drawn) [compound 1753] | > 15 µM
CN1CCCC1CCN(CC[C@@H]1CCCN1C)C(=O)c1cn2c3c(c(N4CCC(c5cnccn5)C4)c(F)cc3c1=O)Oc1cc3ccccc3cc1-2 (stereo partly drawn) [compound 1754] | 5 µM
CN1CCCC1CCNC(=O)c1cn2c3c(c(NCc4ccco4)c(F)cc3c1=O)Oc1cc3ccccc3cc1-2 (stereo not drawn) [compound 1755] | 4.2 µM
COc1ccc(CCNc2c(F)cc3c(=O)c(C(=O)NCCN4CCCC4)cn4c3c2Oc2cc3ccccc3cc2-4)cc1OC [compound 1756] | 1.81 µM
COc1ccc(CCNc2c(F)cc3c(=O)c(C(=O)NCCC4CCCN4C)cn4c3c2Oc2cc3ccccc3cc2-4)cc1OC (stereo not drawn) [compound 1757] | 9.8 µM
CCN(CC)CCCC(C)NC(=O)c1cn2c3c(c(NCCc4ccc(OC)c(OC)c4)c(F)cc3c1=O)Oc1cc3ccccc3cc1-2 (stereo not drawn) [compound 1758] | 9.4 µM
COc1ccc(CCNc2c(F)cc3c(=O)c(C(=O)N(C)CCc4ccccn4)cn4c3c2Oc2cc3ccccc3cc2-4)cc1OC [compound 1759] | 10 µM
CN1CCCC1CCNC(=O)c1cn2c3c(c(SCCc4cnccn4)c(F)cc3c1=O)Oc1cc3ccccc3cc1-2 (stereo not drawn) [compound 1760] | 1.85 µM
CN1CCCC1CCNC(=O)c1cn2c3c(c(-n4cncc4-c4cnccn4)c(F)cc3c1=O)Oc1cc3ccccc3cc1-2 (stereo not drawn) [compound 1761] | 1.75 µM
CN1CCC[C@H]1CCNC(=O)c1cn2c3c(c(N4CCC(c5cnccn5)C4)c(F)cc3c1=O)Oc1ccccc1-2 (stereo partly drawn) [compound 1762] | 5.7 µM
CN1CCCC1CCNC(=O)c1cn2c3c(c(N4CCC(c5cnccn5)C4)c(F)cc3c1=O)Oc1ccc(Cl)cc1-2 (stereo not drawn) [compound 1764] | 4.8 µM
CN1CCCC1CCNC(=O)c1cn2c3c(c(N4CCC(c5cnccn5)C4)c(F)cc3c1=O)Oc1cc(Cl)ccc1-2 (stereo not drawn) [compound 1765] | 3.6 µM
